Assay results taken from US20180057465A1, “Inhibitors of Necroptosis” (Catalyst Therapeutics Pty Ltd, priority 2015, published 2018).
Like-named read-outs stand apart in the source and are kept apart here.

Columns and labels:
[1] = system: U937 human histiocytic leukemia cell line; assay: Assay 2: inhibition of TSQ induced necroptosis, 96 well plate format; details: read-out: Inhibition of TSQ-induced necroptosis (cell based assay) IC50 (U937, TSQ nM)
Procedure: (§1) Assay 2: Screening Compounds for Inhibition of TSQ Induced Necroptosis, 96 Well Plate Format.
(§2) Cell Line ID: U937 human histiocytic leukemia cell line.
(§3) Cell Concentration (cells/well): Final cell density is 5000 cells per well.
(§4) Cell growth medium: HT-RPMI+7.4% FBS. Cells are cultured in Corning 150 cm^2 tissue culture flasks with vented caps at 37° C./5% CO2.
(§5) Incubation time (hours): 48 hours following addition of compounds and death stimuli
(§6) Compound concentration: 100 nM
(§7) DMSO final concentration (% v/v): 0.3%.
(§8) Compounds that are in the Death Stimulation Cocktail and Their Final Concentrations:
(§9) hTNF-Fc (100 ng/ml)—produced by standard procedures as shown in Bossen et al., J Biol Chem, 2006, 281(20), 13964-13971.
(§10) Compound A (500 nM)—Smac mimetic, Tetralogic
(§11) Q-VD-OPh (10 μM)—MP Biomedicals
(§12) Data is loaded into Abase and normalised. 10 points titration curve are fitted with the 4 parameter logistic nonlinear regression model and the IC50 reported reflects the inflection point of the curve for curve fitting.

U937 = assay: Off-target effect (cell based assay), reported with assay 2; details: Homo sapiens
Procedure: as §1, §2, §3, §4, §5, §6, §7, §12

[2] = system: U937 human histiocytic leukemia cell line; assay: Assay 1: inhibition of TSQ induced necroptosis, 96 well plate format; type: cell-based; details: U-937, Table 1, assay 1, hTNF-Fc 100 ng/ml, Compound A 500 nM, Q-VD-OPh 10 μM, 48 hours, PI staining, flow cytometry, read-out: Inhibition of TSQ-induced necroptosis (cell based assay) IC50
Procedure: For in vitro analysis, the necroptosis inhibition may be determined by assays used to measure TSQ-induced necroptosis, as described in the biological tests defined herein.
(§13) Assay 1: Screening Compounds for Inhibition of TSQ Induced Necroptosis, 96 Well Plate Format.
(§14) Cell Line ID: […] human histiocytic leukemia cell line.
(§15) Cell Concentration (cells/well): 35,000 per well in 120 μL of media, counted and plated immediately prior to addition of inhibitor and death stimuli. Final well volume of 150 μL after addition of compounds and death stimuli
(§16) Cell growth medium: HTRPMI (WEHI Media kitchen, contains L-Glutamine and penicillin, streptomycin)—supplemented with 7.4% v/v FCS (Gibco, Precision Plus. Lot #1221437)
as §5
(§17) Compound Concentrations—Log Titrations:
(§18) DMSO final concentration (% v/v): 1.2% in 10 μM well to 0.2% in the control well.
as §8, §9, §10, §11
(§19) Cells treated with PI staining (1 μg/ml) and analysed by flow cytometry

[3] = system: U937 human histiocytic leukemia cell line; assay: Off-target effect (cell based assay), reported with assay 1; details: U-937, Table 1, assay 1, read-out: Off-target effect (cell based assay) IC50
Procedure: as §13, §14, §15, §16, §5, §17, §18, §19

[4] = U-937, read-out: Off-target effect (cell based assay) IC50 (U937, μM)
[5] = U-937, Table 2, assay 2, U937, 5000 cells per well, hTNF-Fc 100 ng/ml, Compound A 500 nM, Q-VD-OPh 10 μM, 48 hours
[6] = U-937, Table 2, assay 2, U937, read-out: Off-target effect (cell based assay) IC50 (U937)

IC50 [3] [µM] | IC50 (U937; [6]) [µM] | SMILES | IC50 ([1]; U-937, 48 h) [nM] | IC50 (U937; [4]) [µM] | IC50 [2] [µM] | IC50 [1, 5] [nM]
– | – | CNC(=O)c1cc(Nc2ncc(C)c(N(C)c3ccc(NC(=O)Nc4ccc(OC(F)(F)F)cc4)cc3)n2)ccc1C [Compound 6, N,2-dimethyl-5-((5-methyl-4-(methyl(4-(3-(4-(trifluoromethoxy)phenyl)ureido)phenyl)amino)pyrimidin-2-yl)amino)benzamide] | 29 | > 1000 | – | –
6.38 | – | Cc1ccc(Nc2nccc(N(C)c3ccc(NC(=O)Nc4ccc(OC(F)(F)F)cc4)cc3)n2)cc1CN1CCN(C)CC1 [Compound 23, 1-(4-(methyl(2-((4-methyl-3-((4-methylpiperazin-1-yl)methyl)phenyl)amino)pyrimidin-4-yl)amino)phenyl)-3-(4-(trifluoromethoxy)phenyl)urea] | – | – | 0.202 | –
1.24 | – | Cc1ccc(Nc2ncc(F)c(N(C)c3ccc(NC(=O)Nc4cc(F)cc(C(F)(F)F)c4)cc3)n2)cc1N1CCCC1=O [Compound 24, 1-(4-((5-fluoro-2-((4-methyl-3-(2-oxopyrrolidin-1-yl)phenyl)amino)pyrimidin-4-yl)(methyl)amino)phenyl)-3-(3-fluoro-5-(trifluoromethyl)phenyl)urea] | – | – | 0.0089 | –
2.28 | – | Cc1ccc(Nc2nccc(N(C)c3ccc(NC(=O)Nc4cc(F)cc(C(F)(F)F)c4)cc3)n2)cc1C(=O)N1CCOCC1 [Compound 25, 1-(3-fluoro-5-(trifluoromethyl)phenyl)-3-(4-(methyl(2-((4-methyl-3-(morpholine-4-carbonyl)phenyl)amino)pyrimidin-4-yl)amino)phenyl)urea] | – | – | 0.0092 | –
2.7 | – | CNC(=O)c1cc(Nc2nccc(N(C)c3ccc(NC(=O)Nc4cc(F)cc(C(F)(F)F)c4)cc3)n2)ccc1N1CCOCC1 [Compound 27, 5-((4-((4-(3-(3-fluoro-5-(trifluoromethyl)phenyl)ureido)phenyl)(methyl)amino)pyrimidin-2-yl)amino)-N-methyl-2-morpholinobenzamide] | – | – | 0.325 | –
0.98 | – | CC(=O)Nc1cc(Nc2nccc(N(C)c3ccc(NC(=O)Nc4ccc(OC(F)(F)F)cc4)cc3)n2)ccc1C [Compound 28, N-(2-methyl-5-((4-(methyl(4-(3-(4-(trifluoromethoxy)phenyl)ureido)phenyl)amino)pyrimidin-2-yl)amino)phenyl)acetamide] | – | – | 0.093 | –
2.05 | – | CNC(=O)c1cc(Nc2nccc(N(C)c3ccc(NC(=O)Nc4cc(Cl)cc(C(F)(F)F)c4)cc3)n2)ccc1C [Compound 29, 5-((4-((4-(3-(3-chloro-5-(trifluoromethyl)phenyl)ureido)phenyl)(methyl)amino)pyrimidin-2-yl)amino)-N,2-dimethylbenzamide] | – | – | 0.02 | –
6.68 | – | CNC(=O)c1cc(Nc2nccc(N(C)c3ccc(NC(=O)Nc4cc(F)cc(C(F)(F)F)c4)cc3)n2)ccc1OC [Compound 30, 5-((4-((4-(3-(3-fluoro-5-(trifluoromethyl)phenyl)ureido)phenyl)(methyl)amino)pyrimidin-2-yl)amino)-2-methoxy-N-methylbenzamide] | – | – | 0.058 | –
4.13 | – | CNC(=O)c1cc(Nc2nccc(N(C)c3ccc(NC(=O)Nc4cccc(C#N)c4)cc3)n2)ccc1C [Compound 33, 5-((4-((4-(3-(3-cyanophenyl)ureido)phenyl)(methyl)amino)pyrimidin-2-yl)amino)-N,2-dimethylbenzamide] | – | – | 0.164 | –
2.42 | 0.513 | Cc1ccc(Nc2nccc(N(C)c3ccc(NC(=O)Nc4cc(F)cc(C(F)(F)F)c4)cc3)n2)cc1N1CCNC1=O [Compound 34, 1-(3-fluoro-5-(trifluoromethyl)phenyl)-3-(4-(methyl(2-((4-methyl-3-(2-oxoimidazolidin-1-yl)phenyl)amino)pyrimidin-4-yl)amino)phenyl)urea] | – | – | 0.023 | 29
– | 0.841 | CNC(=O)c1cc(Nc2nccc(N(C)c3ccc(NC(=O)Nc4cc(F)cc(C(F)(F)F)c4)cc3)n2)ccc1CN1CCN(C)CC1 [Compound 35, 5-((4-((4-(3-(3-fluoro-5-(trifluoromethyl)phenyl)ureido)phenyl)(methyl)amino)pyrimidin-2-yl)amino)-N-methyl-2-((4-methylpiperazin-1-yl)methyl)benzamide] | – | – | – | 45
– | 2.42 | Cc1ccc(Nc2nccc(N(C)c3ccc(NC(=O)Nc4cc(F)cc(C(F)(F)F)c4)cc3)n2)cc1C(=O)OCCO [Compound 36, 2-hydroxyethyl 5-((4-((4-(3-(3-fluoro-5-(trifluoromethyl)phenyl)ureido)phenyl)(methyl)amino)pyrimidin-2-yl)amino)-2-methylbenzoate] | – | – | – | 23
– | 1.09 | CNC(=O)c1cc(Nc2nccc(N(C)c3ccc(NC(=O)Nc4cc(C(F)(F)F)cc(C(F)(F)F)c4)cc3)n2)ccc1C [Compound 37, 5-((4-((4-(3-(3,5-bis(trifluoromethyl)phenyl)ureido)phenyl)(methyl)amino)pyrimidin-2-yl)amino)-N,2-dimethylbenzamide] | – | – | – | 71
– | 0.231 | CNC(=O)c1cc(Nc2nccc(N(C)c3ccc(NC(=O)Nc4cccc(CC(F)(F)F)c4)cc3)n2)ccc1C [Compound 38, N,2-dimethyl-5-((4-(methyl(4-(3-(3-(2,2,2-trifluoroethyl)phenyl)ureido)phenyl)amino)pyrimidin-2-yl)amino)benzamide] | – | – | – | 2.3
– | 0.419 | CNC(=O)c1cc(Nc2nccc(N(C)c3ccc(NC(=O)Nc4cccc(OC(F)(F)F)c4)cc3)n2)ccc1C [Compound 39, N,2-dimethyl-5-((4-(methyl(4-(3-(3-(trifluoromethoxy)phenyl)ureido)phenyl)amino)pyrimidin-2-yl)amino)benzamide] | – | – | – | 3.9
– | > 10 | CN(c1ccc(NC(=O)Nc2ccc(OC(F)(F)F)cc2)cc1)c1ccnc(Nc2cccc(N3CC4(CCOCC4)CC3=O)c2)n1 [Compound 40, 1-(4-(methyl(2-((3-(3-oxo-8-oxa-2-azaspiro[4.5]decan-2-yl)phenyl)amino)pyrimidin-4-yl)amino)phenyl)-3-(4-(trifluoromethoxy)phenyl)urea] | – | – | – | 7.5
– | > 10 | Cc1ccc(Nc2nccc(N(C)c3ccc(NC(=O)Nc4ccc(OC(F)(F)F)cc4)cc3)n2)cc1N1CC2(CCOCC2)CC1=O [Compound 41, 1-(4-(methyl(2-((4-methyl-3-(3-oxo-8-oxa-2-azaspiro[4.5]decan-2-yl)phenyl)amino)pyrimidin-4-yl)amino)phenyl)-3-(4-(trifluoromethoxy)phenyl)urea] | – | – | – | 14
– | > 10 | CNC(=O)c1cc(Nc2nccc(N(C)c3ccc(NC(=O)Nc4cc(C#N)cc(C(F)(F)F)c4)cc3)n2)ccc1C [Compound 42] | – | – | – | 49
– | – | CN(c1ccc(NC(=O)Nc2ccc(OC(F)(F)F)cc2)cc1)c1ccnc(Nc2cccc(S(N)(=O)=O)c2)n1 [drawing 174, reference compound] | 75 | 1.5 | – | –
